Literature values in article PMC3010531 (Journal of the American Chemical Society, 2010).

Columns and labels:
mH2A1.1 = mH2A1.1 (Homo sapiens, UniProt O75367); settings: ref 13c
mH2A1.1 (G224E) = mH2A1.1 (G224E) (Homo sapiens, UniProt O75367, G224E); settings: point-mutant; ref 13c
mH2A1.2 = mH2A1.2 (Homo sapiens, UniProt O75367); settings: splice-variant; ref 13c
Chain of mH2A1.2 (O75367 162-372 isoform O75367-1): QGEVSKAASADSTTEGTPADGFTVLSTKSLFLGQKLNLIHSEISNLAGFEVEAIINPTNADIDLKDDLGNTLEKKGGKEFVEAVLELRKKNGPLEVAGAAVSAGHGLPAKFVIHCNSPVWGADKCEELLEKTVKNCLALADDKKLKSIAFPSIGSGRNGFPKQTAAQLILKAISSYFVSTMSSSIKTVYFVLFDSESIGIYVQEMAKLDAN

Chain of mH2A1.1 (O75367 184-367 limits assumed, species assumed): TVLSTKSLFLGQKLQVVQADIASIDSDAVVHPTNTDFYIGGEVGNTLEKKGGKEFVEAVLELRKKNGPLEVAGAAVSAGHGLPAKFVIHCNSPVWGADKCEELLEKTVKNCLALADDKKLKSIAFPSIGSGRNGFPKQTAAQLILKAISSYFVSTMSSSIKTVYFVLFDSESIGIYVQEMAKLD
Chain of mH2A1.1 (G224E) (O75367 whole entry G224E, species assumed, canonical isoform): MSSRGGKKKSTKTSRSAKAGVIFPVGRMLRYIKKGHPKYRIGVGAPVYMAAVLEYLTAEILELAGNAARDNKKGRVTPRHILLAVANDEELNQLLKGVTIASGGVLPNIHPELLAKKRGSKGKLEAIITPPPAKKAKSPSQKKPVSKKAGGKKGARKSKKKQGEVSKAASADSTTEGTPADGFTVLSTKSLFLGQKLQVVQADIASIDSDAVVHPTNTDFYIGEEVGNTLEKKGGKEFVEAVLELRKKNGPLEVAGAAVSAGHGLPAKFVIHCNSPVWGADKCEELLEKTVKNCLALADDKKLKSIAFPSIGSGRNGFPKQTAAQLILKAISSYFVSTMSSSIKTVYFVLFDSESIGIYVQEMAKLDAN

For Nc1ncnc2c1ncn2[C@@H]1O[C@H](COP(=O)(O)OP(=O)(O)OC[C@H]2OC(O)[C@H](O)[C@@H]2O)[C@@H](O)[C@H]1O (stereo partly drawn) [ADPR, ADP-ribose], the “affinity of free ADPR for mH2A1.1” value (mH2A1.1) is listed as “modest, in the μM range”, the “binding of ADPR by mH2A1.1 (G224E)” value (mH2A1.1 (G224E)) is listed as “abolishes ADPR binding” and the “binding of ADPR by mH2A1.2” value (mH2A1.2) is listed as “does not bind ADPR”.
